The results in this text go back to patent publication US20180311174A1, “NANOPARTICLES COMPRISING A METAL CORE SURROUNDED BY A MONOLAYER FOR LYMPH NODE TARGETING” (Massachusetts Institute of Technology, priority 2015, published 2018).

A short description of series [1]: Hydrophobic drug loading capacity of NPs (UV-vis/HPLC). In kind it is physicochemical. The source says:
In this drug loading strategy, DGKi or other hydrophobic drugs in organic solvent are mixed with an aqueous suspension of amph-NPs and dialyzed to remove the organic solvent, leading to partitioning of the drug into the hydrophobic pockets of the amph-NP ligand shell. This approach allowed one to load drugs that are nearly insoluble in aqueous solutions to high degrees of “solubility” via incorporation into MUS or MUSOT amph-NPs.
More detailed procedures to prepare small molecules-loaded NPs are as follows: Hydrophobic small molecules are dissolved in pure ethanol, and mixed with NPs in a dialysis tube against water. Dialysis tubes containing 100-500 Da molecular weight cut off allows ethanol to permeate while retains most small molecules. […] Loaded drugs were then quantified via absorbance using UV-vis spectrometer.
To test immunomodulatory drug loading capacity, small-molecule drug N-acetylcysteine (NAC) was loaded directly onto the gold core via sulfur-gold covalent bonding. […] The drug loading efficiency was determined by HPLC and UV-vis.
In this drug loading strategy, DGKi or other hydrophobic drugs in organic solvent are mixed with an aqueous suspension of amph-NPs and dialyzed to remove the organic solvent, leading to partitioning of the drug into the hydrophobic pockets of the amph-NP ligand shell. […] Loaded drugs were then quantified via absorbance using UV-vis spectrometer. […]

In the next series the test system is DCs, B and T cells. The series is described as follows: Immune cell activation in lymph nodes after s.c. R848. The series is classed as in vivo, C57BL/6 mice. The settings on record: doses above 5 μg, 24 h post injection. The protocol:
From there they disperse into the body and drain into the lymph system where they encounter cells sensitive to their adjuvants. Serum inflammatory cytokines were tested one hour post injection given the short half-life of small molecules.
R848 (Resiquimod, a TLR7/8 agonist) was loaded into amph-NPs, and administered subcutaneously at the tail base. Serum was collected 1 hour post injection to evaluate systemic toxicity. Cells in LNs were isolated 24 h post injection to analyze immune cell activation.
Small molecules like R848 diffuse quickly into blood vessels, which may lead to severe systemic adverse effect. An experiment was designed to determine if by using lymph node targeted NPs, systemic adverse effects could be reduced while activation of local lymphocytes remains effective. Systemic toxicity was compared by measuring TNF, IL-6, IL-10, and MCP-1, and measuring activation of lymphatic cells.

The subject of a further series is Cytotoxic T cells. The series is described as follows: T cell proliferation under PD-L1 induced suppression. In kind it is cell-based. The settings on record: αCD3/CD28 activated. Here is the method:
Cytotoxic T cells were incubated with αCD3/CD28 activating antibody and either control IgG, or with PD-L1 IgG (PD-1 agonist antibody) to induce T cell suppression, and further treated with vehicle, DGK inhibitor alone, DGK inhibitor loaded amph-NP, or amph-NP alone.

Another series concerns the target PD-1. Kind of series: cell-based or functional assay.

As to `CN[C@@H](C)C(=O)N[C@H](C(=O)N1CCC[C@H]1c1nc(C(=O)c2ccc(F)cc2)cs1)C1CCCCC1` [LCL161], the “loading in amph-NPs” value in series [1] is reported as “loads well”.

For `CCOCc1nc2c(N)nc3ccccc3c2n1CC(C)(C)O` [R848, Resiquimod], the “activation of immune cells in LNs” value with DCs, B and T cells is “activated DCs, B and T cells”.

Regarding `Cc1nc2sccn2c(=O)c1CCN1CCC(=C(c2ccccc2)c2ccc(F)cc2)CC1` [diacyl kinase inhibitor], the “% proliferating cells” value with Cytotoxic T cells (PD-L1 IgG (suppressed)) worked out at 2.71%; with Cytotoxic T cells (control IgG), 89.9%.

Regarding PD-L1 IgG (PD-1 agonist antibody), the % proliferating cells (cytotoxic T cells with anti-CD3/CD28, vehicle / no treatment; control IgG gave 71.3%) in the series with PD-1 came to 0.98%.
